Experimental data from US6399828B1, “Preparation of amphetamines from phenylpropanolamines” (Boehringer Ingelheim Chemicals, Inc., priority 2001, dated 2002).

Assays:
[1] = Stability of O-acetylnorephedrine hydrochloride stirred with water (rearrangement to N-acetylnorephedrine), HPLC analyses; assay type: physicochemical
Protocol: Ammonium formate appears to catalyze the rearrangement of O-acetylnorephedrine hydrochloride to N-acetylnorephedrine. Three samples of O-acetylnorephedrine hydrochloride (Experiment Z recrystallized) were stirred with water for six hours respectively at room temperature, at 60° C., and at 60° C. with ammonium formate added. Samples were taken at intervals for HPLC analyses. […] At 60° C., the percentage of O-acetylnorephedrine hydrochloride decreased from 99.18 to 97.79 with the percentage of N-acetylnorephedrine increasing from 0.21% to 1.1% over a 6 hour period. […] The catalytic hydrogenation route therefore appears to be preferable to catalytic transfer hydrogenation in view of the induction period, gas evolution, and rearrangement potential.

[2] = Solubility of O-acetylnorephedrine hydrochloride in water (Experiment X)

CC(=O)OC(c1ccccc1)C(C)N.Cl (stereo not shown) [O-acetylnorephedrine hydrochloride, 2-Amino-1-acetoxy1-phenylpropane Hydrochloride]
percentage of O-acetylnorephedrine hydrochloride ([1]; water with ammonium formate, 60° C., by 6 hours): 77.20%
percentage of O-acetylnorephedrine hydrochloride ([1]; water with ammonium formate, 60° C., within 30 minutes): 91.23%
percentage of O-acetylnorephedrine hydrochloride ([1]; water, 60° C., after 6 hours): 97.79%
percentage of O-acetylnorephedrine hydrochloride ([1]; water, 60° C., start): 99.18%
percentage of O-acetylnorephedrine hydrochloride ([1]; water, room temperature, after 6 hours): 99.12%
percentage of O-acetylnorephedrine hydrochloride ([1]; water, room temperature, start): 99.30%
solubility in water [2]: 5.5 mL/g
